In brackets after ≈: the same amount, converted by molar mass.
Experiments:
[1] = test system: UVB-irradiated neonatal human dermal fibroblasts (HDF); assay: MTT cytotoxicity on UVB-irradiated HDF; type: cell-based; conditions: 10 μg/ml
From the text: Retinoids are used to remediate the effects of photoaging, caused by exposure to solar radiation (Tierney, E. P., Hanke C. W., “Recent Advances in Combination Treatments for Photoaging: Review of the Literature,” Dermatol. Surg., 2010, 36:829-40). Therefore, we compared the effect of bakuchiol and SBD.FA on confluent cultures of UVB-irradiated neonatal human dermal fibroblasts (HDF). The total irradiation dose (150mJ/cm2) was biologically relevant, i.e., equivalent to doses received by humans exposed to midday, clear sky, midsummer sun for a moderate period of time (Besaratinia, A., Kim, S. I., Pfeifer, G. P., “Rapid repair of UVA-induced oxidized purines and persistence of UVB-induced dipyrimidine lesions determine the mutagenicity of sunlight in mouse cells,” FASEB J., 2008, 22(7):2379-92). […] Under these conditions, the cytotoxicity at the highest concentration tested (10 μg/ml) compared to the water-treated control was 36% for bakuchiol and 8% for SBD.FA, as determined by the MTT method (Berridge M. V., Tan A. S., “Characterization of the Cellular Reduction of 3-(4,5-dimethylthiazol-2-yl)-2,5-diphenyltetrazolium bromide (MTT): Subcellular Localization, Substrate Dependence, and Involvement of Mitochondrial Electron Transport in MTT Reduction,” Arch. Biochem. Biophys. 1993, 303:474-482), using Molecular Devices microplate spectrophotometer MAX190 at 570 nm.

[2] = test system: mouse melanoma cells (B16F10); assay: B16F10 melanoma growth and melanin; type: cell-based; conditions: Mus musculus, B16-F10; 2.5 μg/ml; read-out: inhibition of B16F10 melanocyte proliferation
From the text: Instead, cells cultured in the presence of SBD.SE grew slower and if allowed to reach monolayer, they become growth-arrested due to contact inhibition. […] Other retinoids, such as bexarotene, are known to have antineoplastic activity against cancers such as cutaneous T cell lymphoma.
The mechanism of action for this effect may be multifactorial and involve the inhibition of tyroinase and/or melanin secretion by melanocytes.

[3] = test system: P. acnes; assay: MIC against planktonic P. acnes; type: cell-based, Propionibacterium acnes; conditions: Cutibacterium acnes; exponentially-growing planktonic bacteria, oxygen-free atmosphere; read-out: MIC (minimal inhibitory concentration)
Protocol: Serial dilutions of SBD.SE and SBD.FA were incubated with exponentially-growing planktonic P. acnes bacteria in oxygen-free atmosphere.
The MIC (minimal inhibitory concentration) for SBD.SE was determined to be about 30 μg/ml and for SBD.FA—about 60 μg/ml.

[4] = DPPH assay (free radical scavenging); type: biochemical; conditions: 520 nm
From the text: The objective of this experiment was to determine the antioxidant capacity of SBD.SE, using DPPH assay methodology. DPPH (2,2-diphenyl-1-picrylhydrazyl) is a stable free radical. The principle of the DPPH assay uses the reduction of the DPPH radical (purple) to diphenylpicrylhydrazine (yellow) as an indication of free radical scavenging capacity of a given test material (Schenk, G. H., Swieczkowski, N. K., “Colorimetric determination of pyrogallol and 2,6-dimethoxyphenol with diphenylpicrylhydrazyl,” Talanta, 1971, 18:230-4). Following the incubation of a test agent with DPPH solution, a reduction in absorbance at 520 nm compared to control is indicative of DPPH-scavenging. The degree of DPPH scavenging activity is expressed as % water control.

[5] = test system: 3T3 cells; assay: 3T3 Neutral Red phototoxicity (OECD 432); type: cell-based; conditions: up to at least 100 μg/ml
Protocol: Phototoxicity is defined as light-activated cytotoxicity. […] The protocol followed in this example was based on the OECD 432 Guidelines. Four 96 well plates were seeded with 3T3 cells (Sigma, St. Louis, Mo.; cat. 93061524-1VL) at 10,000 cells per well in DMEM supplemented with 10% iron-fortified calf serum, and grown overnight in humidified atmosphere at 37° C. in 5% CO2. Serial dilutions of SBD.SE and chlorpromazine (positive control) were added to 2 plates each. […]
[…] Plates were returned to the incubator for 24 h, afterward the medium was removed, cells were rinsed with PBS and placed in Neutral Red medium at 50 μg/ml in which cells were incubated for 3 more hours. Wells were then washed with PBS and Neutral Red was extracted from cells with 1.0% Glacial Acetic Acid/50% Ethanol/49% H2O solution.
Following a 30-minute extraction with mixing, the absorbance of each well was measured at 570 nm with Molecular Devices SpectraMax® microplate spectrophotometer. P values were calculated using two-tailed Student's test and p=0.05 was set as borderline for statistical significance.

[6] = test system: adult HEK; assay: Adult HEK proliferation; type: cell-based, human; conditions: Homo sapiens; 2.5 μg/ml
[7] = test system: non-irradiated neonatal HDF; assay: Cytotoxicity on non-irradiated neonatal HDF monolayers; type: cell-based, human; conditions: 12.5 μg/ml
[8] = test system: RAR; assay: Cignal RAR reporter assay; type: cell-based; conditions: 0.3 μg/ml
From the text: Tissue irritation is a common side effect of retinoids. It is mediated, at least in part, by retinoid interaction with retinoic acid receptors (RARs; Thacher S M, Vasudevan J, Chandraratna R A. Therapeutic applications for ligands of retinoid receptors. Curr Pharm Des. 2000 January; 6(1):25-58; Kambayashi H, Odake Y, Takada K, Funasaka Y, Ichihashi M, Kato S. N-retinoyl-D-glucosamine, a new retinoic acid agonist, mediates topical retinoid efficacy with no irritation on photoaged skin. Br J Dermatol. 2005 December; 153 Suppl 2:30-6).

[9] = UVB irradiation, HPLC-MS profile; type: physicochemical; conditions: irradiated vs non-irradiated
From the text: Both compounds were irradiated with UVB light and their HPLC-MS profile was compared to their respective non-irradiated controls. FIGS. 2, 3, 6, and 7 show HPLC chromatograms of UVB-irradiated (lower portions) and non-irradiated samples (upper portions) of bakuchiol (FIGS. 2 and 3) and SBD.SE (FIGS. 6 and 7) detected at 254 nm (FIGS. 2 and 6) and 230 nm (FIGS. 3 and 7).

Row | MIC [3] [µg/mL] | stability under UVB irradiation (HPLC-MS) [9] | SMILES | cytotoxicity compared to the water-treated control ([1]; human, 48 h) [%] | inhibition at 2.5 µg/mL [2] [%] | DPPH color (% Control) ([4]; 0.5 ug/ml) | DPPH color (% Control) ([4]; 2 ug/ml) | DPPH color (% Control) ([4]; 10 ug/ml) | cytotoxicity in absence and presence of UVB light [5] | inhibition at 2.5 µg/mL [6] [%] | cytotoxicity ([7]; human) [%] | increase of RAR-mediated transcription [8] [%] | cytotoxicity compared to the water-treated control ([1]; UVB 150mJ/cm2, added 24 h before, terminated 24 h after irradiation, MTT) [%] | cytotoxicity ([7]; monolayers formed before addition) [%]
1 | ~60 (≈ 139 µM) | – | C=CC(C)(/C=C/c1ccc(OC(=O)/C=C/c2ccc(O)c(OC)c2)cc1)CCC=C(C)C (stereo not shown) [SBD.FA] | 8 | 53 | 102 | 99 | 60 | lack of significant cytotoxicity | 21 | 8 | – | – | –
2 | – | – | CC1=C(/C=C/C(C)=C/C=C/C(C)=C/C(=O)O)C(C)(C)CCC1 [ATRA, all-trans retinoic acid, reference compound] | – | – | – | – | – | – | – | – | 460 | – | –
3 | – | disintegrates | C=C[C@@](C)(/C=C/c1ccc(O)cc1)CCC=C(C)C [bakuchiol, reference compound] | – | – | 85 | 92 | 46 | – | – | – | – | 36 | 39

— patent US10471035B2, “Compositions and methods for using esters of meroterpenes and of other resveratrol analogues” (Sunny BioDiscovery, priority 2014, dated 2019)
